Entries after “also recorded” stand apart in the source; their conditions may differ. Read-outs that look alike come from different tables or passages of the source. Values belong to the compound of their own block, whether it stands above or below them.
How the values were obtained:
[1] = tested on: UM-UC-3 cells; test: CCK-8 anti-proliferative assay, UM-UC-3; assay type: cell-based, human; conditions: Homo sapiens, UMUC3, co-incubated 48 h, read-out: Anti-proliferative activity (IC50 ± standard deviation) UM-UC-3
Procedure, shortened: (§1)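 Cells seeded at 5,000/well, grown at 37° C, 5% CO2 to 70% confluence, then treated in triplicate with 1-30 μM compound (nine concentrations) for designated times.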

[2] = tested on: Hep G2 cells; test: CCK-8 anti-proliferative assay, Hep G2; assay type: cell-based, human; conditions: Homo sapiens, HepG2, co-incubated 48 h, read-out: Anti-proliferative activity (IC50 ± standard deviation) Hep G2
Procedure, shortened: (§2)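 Human tumour cells were seeded at 5,000 per well and grown to 70% confluence. They were then treated in triplicate with compound at 1–30 μM (final) for the designated time. Viability was read by CCK-8 absorbance at 450 nm after 1–4 h, and IC50 was derived from % inhibition versus control.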

[3] = tested on: BxPC-3 cells; test: CCK-8 anti-proliferative assay, BxPC-3; assay type: cell-based, human; conditions: for IC50: Homo sapiens, BXPC-3, co-incubated 48 h, read-out: Anti-proliferative activity (IC50 ± standard deviation) BxPC-3
Procedure, shortened: as §2

[4] = tested on: SK-OV-3 cells; test: CCK-8 anti-proliferative assay, SK-OV-3; assay type: cell-based, human; conditions: Homo sapiens, SK-OV-3, co-incubated 48 h, read-out: Anti-proliferative activity (IC50 ± standard deviation) SK-OV-3
Procedure, shortened: as §1

[5] = tested on: J82 cells; test: CCK-8 anti-proliferative assay, J82; assay type: cell-based, human; conditions: Homo sapiens, J82
Procedure, shortened: as §1

[6] = tested on: 143B cells; test: CCK-8 anti-proliferative assay, 143B; assay type: cell-based, human; conditions: Homo sapiens, 143B
Procedure, shortened: as §2

[7] = assay type: physicochemical
Experimental: 0.9% normal saline was added thereto to obtain a solution, which was sterilized under UV light for 30 min. Administration volume was 10 mL/kg per mouse. […]
A resulting mixture was sterilized under UV light for 30 min. Administration volume was 10 mL/kg per mouse.

[8] = tested on: HeLa cells; test: CCK-8 anti-proliferative assay, HeLa; assay type: cell-based, human; conditions: for IC50: Homo sapiens, HeLa, co-incubated 48 h, read-out: Anti-proliferative activity (IC50 ± standard deviation) HeLa
Procedure, shortened: as §1

[9] = tested on: T24 cells; test: CCK-8 anti-proliferative assay, T24; assay type: cell-based, human; conditions: Homo sapiens, T-24, co-incubated 48 h, read-out: Anti-proliferative activity (IC50 ± standard deviation) T24
Procedure, shortened: as §2

[10] = tested on: embryonic lung fibroblasts (WI-38); test: CCK-8 anti-proliferative assay, normal cells WI-38; assay type: cell-based, human; conditions: Homo sapiens, read-out: Anti-proliferative activity (IC50 ± standard deviation) WI-38
Procedure, shortened: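 Compound was added at final concentrations of 1 to 30 μM, in triplicate, to cells at 70% confluence (5,000 per well seeded). After co-incubation, CCK-8 was added for 1–4 h depending on the cell line. Inhibition from OD450 relative to untreated cells gave IC50.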

[11] = tested on: MG-63 cells; test: CCK-8 anti-proliferative assay, MG-63; assay type: cell-based, human; conditions: Homo sapiens, MG-63
Procedure, shortened: as §2

[12] = tested on: PANC-1 cells; test: CCK-8 anti-proliferative assay, PANC-1; assay type: cell-based, human; conditions: for IC50: Homo sapiens, PANC-1, co-incubated 48 h, read-out: Anti-proliferative activity (IC50 ± standard deviation) PANC-1
Procedure, shortened: as §2

[13] = tested on: MCF-7 cells; test: CCK-8 anti-proliferative assay, MCF-7; assay type: cell-based, human; conditions: for IC50: Homo sapiens, MCF7, co-incubated 48 h, read-out: Anti-proliferative activity (IC50 ± standard deviation) MCF-7
Procedure, shortened: as §1

[14] = tested on: 5637 cells; test: CCK-8 anti-proliferative assay, 5637; assay type: cell-based, human; conditions: Homo sapiens
Procedure, shortened: as §1

[15] = tested on: immortalized ureteral epithelial cells (SV-HUC-1); test: CCK-8 anti-proliferative assay, normal cells SV-HUC-1; assay type: cell-based, human; conditions: Homo sapiens, SV-HUC1, normal cells, co-incubated 48 h, read-out: Anti-proliferative activity (IC50 ± standard deviation) SV-HUC-1
Procedure, shortened: as §1

[16] = tested on: A549 cells; test: CCK-8 anti-proliferative assay, A549; assay type: cell-based, human; conditions: for IC50: Homo sapiens, A549, co-incubated 48 h, read-out: Anti-proliferative activity (IC50 ± standard deviation) A549
Procedure, shortened: as §1

[17] = read-out: IC50 values, osteosarcoma cells 143B
[18] = read-out: IC50 values, osteosarcoma cells MG-63

Compound: CCc1cccc(CC)c1NC(=O)Nc1cccc(CNc2ncnc3cc(OC)c(OCCCCCCN4CCC(CN5CCN(c6ccccn6)CC5)CC4)cc23)c1 [Compound 8-2h, N-(3-(((7-methoxy-6-((6-(4-((4-(pyridin-2-yl)piperazin-1-yl)methyl)piperidin-1-yl)hexyl)oxy)quinazolin-4-yl)amino)methyl)phenyl)-N′-(2,6-diethylphenyl)urea]
IC50 ([1]; Table 10): 5.09 ± 0.35 µM
IC50 ([2]; Table 12): 4.66 ± 0.38 µM
Sensitivity of BxPC-3 / anti-proliferative activity against BxPC-3, in words [3]: significantly stronger anti-proliferative activity against BxPC-3 than positive control Sora; also recorded: heightened sensitivity; also recorded: very sensitive; also recorded: highly sensitive
IC50 ([3]; Table 11): 3.66 ± 0.24 µM
IC50 ([4]; Table 12): 6.12 ± 0.55 µM
IC50 ([5]; Table 10, co-incubated 48 h, read-out: Anti-proliferative activity (IC50 ± standard deviation) J82): 4.42 ± 0.29 µM
IC50 ([6]; Table 11, co-incubated 48 h, read-out: Anti-proliferative activity (IC50 ± standard deviation) 143B): 4.91 ± 0.36 µM
IC50 [6, 17]: < 5 µM
Solubility in co-solvents (PEG400+normal saline, PEG400+PBS, PEG400+5% dextrose injection) [7]: superior solubility
Sensitivity of HeLa, in words [8]: sensitive
IC50 ([8]; Table 12): 3.29 ± 0.18 µM
IC50 ([9]; Table 10): 4.21 ± 0.36 µM
IC50 ([10]; WI-38, Table 13, co-incubated 48 h): 9.58 ± 0.43 µM
IC50 ([11]; Table 11, co-incubated 48 h, read-out: Anti-proliferative activity (IC50 ± standard deviation) MG-63): 3.97 ± 0.26 µM
IC50 [11, 18]: < 5 µM
Sensitivity of PANC-1, in words [12]: sensitive; also recorded: heightened sensitivity
IC50 ([12]; Table 11): 4.88 ± 0.29 µM
IC50 ([13]; Table 12): 5.38 ± 0.35 µM
IC50 ([14]; Table 10, co-incubated 48 h, read-out: Anti-proliferative activity (IC50 ± standard deviation) 5637): 4.18 ± 0.22 µM
IC50 ([15]; Table 13): 9.53 ± 0.83 µM
Activity against A549 versus the 8-1 to 8-23 series, in words [16]: significantly enhanced activity against A549
IC50 ([16]; Table 13): 3.41 ± 0.26 µM

IC50 ([3]; Table 7): 6.53 ± 0.48 µM
IC50 ([4]; Table 9): 5.04 ± 0.32 µM
Solubility in co-solvents (PEG400+normal saline, PEG400+PBS, PEG400+5% dextrose injection) [7]: superior solubility
Solubility in the PEG400-0.9% normal saline mixture ([7]; PEG400:0.9% normal saline 3:1): desirable solubility
IC50 ([8]; Table 8): 4.33 ± 0.45 µM
IC50 ([9]; Table 6): 4.57 ± 0.42 µM
IC50 ([12]; Table 7): 7.72 ± 0.66 µM
IC50 ([13]; Table 8): 3.25 ± 0.35 µM
IC50 ([16]; Table 8): 4.39 ± 0.34 µM
Compound: COc1cc2ncnc(NCc3cccc(NC(=O)Nc4ccc(C(C)(C)C)cc4)c3)c2cc1OCCCCCCN1CCN(CCN2CCOCC2)CC1 [Compound 8-1j, N-(3-(((7-methoxy-6-((6-(4-(2-morpholinoethyl)piperazin-1-yl)hexyl)oxy)quinazolin-4-yl)amino)methyl)phenyl)-N′-(4-tert-butylphenyl)urea]
IC50 ([1]; Table 6): 3.53 ± 0.39 µM
IC50 ([2]; Table 8): 3.83 ± 0.36 µM
Sensitivity of BxPC-3 / anti-proliferative activity against BxPC-3, in words [3]: sensitive; also recorded: less sensitive
IC50 ([5]; Table 6, co-incubated 48 h, read-out: Anti-proliferative activity (IC50 ± standard deviation) J82): 2.98 ± 0.27 µM
IC50 ([5]; read-out: IC50 values against J82 cells): 2.98 ± 0.27 µM
IC50 ([6]; Table 7, co-incubated 48 h, read-out: Anti-proliferative activity (IC50 ± standard deviation) 143B): 3.43 ± 0.25 µM
IC50 [6, 17]: < 5 µM
IC50 ([10]; WI-38, Table 9, co-incubated 48 h): 10.3 ± 0.36 µM
IC50 ([11]; Table 7, co-incubated 48 h, read-out: Anti-proliferative activity (IC50 ± standard deviation) MG-63): 4.17 ± 0.38 µM
IC50 [11, 18]: < 5 µM
Sensitivity of MCF-7, in words [13]: sensitive
IC50 ([14]; Table 6, co-incubated 48 h, read-out: Anti-proliferative activity (IC50 ± standard deviation) 5637): 3.29 ± 0.27 µM
IC50 ([14]; read-out: IC50 values against 5637 cells): 3.29 ± 0.27 µM
IC50 ([15]; Table 9): 8.03 ± 0.41 µM

— patent US20260285816A1, “Piperazinyl-Modified Quinazolinyl-Aryl Urea Derivative, And Preparation Method And Use Thereof” (Guangxi Normal University, priority 2025, published 2026)
